# Data published in patent publication US9877949B2, “Anticancer treatment methods involving analogs and derivatives of 3-(2-substituted-ethyl) indole compounds” (TUSKEGEE UNIVERSITY, priority 2013, dated 2018).
# “And” between values parts separate entries of the source, which are not always exact repeats. Identical values can stand only once. Like-named read-outs stand apart in the source and are kept apart here.
# Assays:
# cyclin A = test: Immunoblotting of cyclin A protein level; assay type: cell-based; details: SW480, immunoblotting
# Protocol: (§1) Progression through the cell cycle is regulated by cyclins and their enzyme partner, cyclin dependent kinases (CDK). The regulation of the cyclin-CDK pair activity is controlled by synthesis and degradation of the cyclin moiety. Cyclin D1 is one of the regulatory cyclins involved in the G1-S transition of cells, and is a known oncogene. As cyclin D1 is a key regulator of cell cycle progression, levels of cyclin D1 protein in both control cells and treated cells were assessed by immunoblotting. Also assessed were the levels of cyclin A, another cyclin regulating both G1-S as well as G2-M transitions. […] Accordingly, inhibiting the expression of cyclins likely contributes to the observed “freezing” effect described previously.
# SW480 cells [1] = test: Scratch wound healing assay; assay type: cell-based; details: SW480, 25 μM, up to 96 hours
# Protocol: Scratch wound healing assay was performed on SW480 cells grown to confluence. Confluent SW480 cells were scratched with a pipette tip to create cell wounds, which were treated with vehicle control solvent (DMSO) and 25 μM 3-(2-bromoethyl) indole. The ability of the cells to migrate and fill the gap created by the scratch was evaluated. […] By comparison, vehicle-treated cells filled the scratch within 96 hours. […] The ability of the cells to migrate and fill the gap was followed by light microscopy imaging at 24-hour intervals. […] The scratch wound is most visible as a clear space at t0. […] Only a few single cells treated with 3-(2-bromoethyl) indole were visible and scattered in the gap. Moreover, there was no evidence of cell division.
# SW480 cancer cells = test: Cell cycle analysis by flow cytometry; assay type: cell-based
# Protocol: (§2) SW480 colon cancer cells were treated with either vehicle control (DMSO) or 25 μM 3-(2-bromoethyl) indole. […] By comparison, vehicle-treated cells rapidly proliferated and visibly filled the surface on which they were seeded. Microphotographs were taken 24 hours (a and c) and 48 hours (b and d) after the treatments. […] To further examine the possibility of inhibited cell proliferation, cell cycle analysis was performed by flow cytometry on cells that were treated with 50 μM 3-(2-bromoethyl) indole for 24 and 48 hours. […] In fact, the specific effect of treating cells with 3-(2-bromoethyl) was to “freeze” the cell growth during treatment. This is illustrated in FIG. 3.
# (§3) Increasing concentrations of 3-(2-bromoethyl) indole (from 12.5 μM to 100 μM) were tested on SW480 colon cancer cells, and viability of the treated cells was measured by the CellTiter-Glo® (Promega® Corporation) method. […] Similarly, dose response examination and cell cycle analysis using variable concentrations of 3-(2-bromoethyl) indole ranging from 12.5 to 100 μM confirms that even doses lower than 50 μM inhibit cell proliferation. Thus, useful embodiments of the present invention provide for a method of inhibiting cancer cell proliferation, comprising treating the cancer cells with 3-(2-bromoethyl) indole with concentrations of greater than or equal to 0.2 μM, or in a range of 1.0 μM to 50.0 μM, or more specifically, from 5.0 μM to 25.0 μM.
# It was also examined by flow cytometry whether the combination of CPT and BEI-9 would induce cell apoptosis as measured by accumulation of sub-G1 population. […] Referring to FIG. 17, cell cycle profiles of parental SW480 cells treated with DMSO (a), BEI-9 (b), CPT (c), BEI-9 and CPT co-treatment (d) or 24 hours of CPT followed by 24 hours of only BEI-9 (e) are shown. The short arrow points to the sub-G1 population of cells resulting from the combination treatment.
# NF-kB [2] = test: NF-kB luciferase reporter assay in SW480-NFL cells; assay type: cell-based
# From the text: One of the regulators of cyclin D1 is the multifunctional transcription factor NF-kB. The effect of 3-(2-bromoethyl) indole on NF-kB signaling was also examined. […] In carrying out the test, NF-kB reporter SW480 cells (SW-NFL) were used. The cells were stably transduced with a construct containing NF-kB-response elements linked to the luciferase gene as the reporter. Previous work has shown that these cells activate NF-kB in response to TNFα, as well as some clinically used chemotherapeutic drugs. As an experimental response to NF-kB activation, these cells express increased amounts of luciferase enzyme, which can be detected by luminescence assay.
# First, the effect of 3-(2-bromoethyl) indole and each of the thirteen other indole compounds on the basal levels of luciferase activity was assessed. An equal number of SW480-NFL cells seeded in a 96-well plate were treated with control vehicle (DMSO) or one of the fourteen indole-derivative test compounds. Luciferase enzyme activity was measured 24 hours after the treatment. […] See FIG. 12, where BEI-9 is the 9th indole test sample depicted in the graph.
# (§4) Second, it was determined whether cytokine-induced NF-kB activation can be blocked by 3-(2-bromoethyl) indole. In prior studies, SW480-NFL cells were tested and confirmed as being responsive to TNFα, a canonical NF-kB pathway inducer, and various clinical chemotherapeutic drugs. To this end, TNFα was first used to activate NF-kB in these reporter cells. It was examined whether co-treatment would interfere with activation of the NF-kB pathway. SW480-NFL cells were treated with 25 ng/ml TNFα as an activator, and with 0.5 μM, 5 μM, or 10 μM BEI-9 as test compound. […] The effect of such a combination treatment is shown in the […] microphotograph in FIG. 14. Referring to FIG. 14, microphotographs were taken of SW480 cells treated with vehicle control (DMSO) (top left), 25 ng/ml TNFα (top right), 5 μM 3-(2-bromoethyl) indole (bottom left), and a combination of 25 ng/ml TNFα and 5 μM 3-(2-bromoethyl) indole (bottom right). Accordingly, in addition to inhibiting NF-kB activation, the addition of 3-(2-bromoethyl) indole to TNFα treated cells may divert TNF receptor-initiated receptor signaling towards apoptosis.
# In prior art, it has been shown that camptothecin (also referred to herein as “CPT”), one of adjuvant drugs clinically used to treat various types of cancers, activates NF-kB in SW480 reporter cells at peak activating concentrations of 0.5 μM or 1.0 μM. The consequence of NF-kB activation as a result of treatment with adjuvant chemotherapy drugs is still under study. To examine whether a combination of CPT with BEI-9 suppresses a drug-induced NF-kB response in SW480 reporter cells, such cells were treated with 0.5 μM CPT and varying concentrations (0.2 μM-12.5 μM) of BEI-9.
# HCT116 cells [3] = test: MTS assay viability index; assay type: cell-based; details: HCT116, variable concentrations
# Protocol: (§5) The activity of 3-(2-bromoethyl) indole on another colon cancer cell line, HCT116, was also tested. […] The absorbance reading at a wavelength of 490 nm is shown on the Y-axis.
# luciferase [4] = test: ATP-dependent cell viability with CellTiter-Glo kit, competition with cellular ATP; assay type: cell-based; details: 10 μM
# Protocol: (§6) Luciferase reporter assays are dependent on the activity of the luciferase enzyme to catalyze the conversion of luciferin to oxyluciferin in the presence of ATP and oxygen, generating light in the process. Therefore, compounds that may directly interfere with the enzyme activity should be distinguished from those that inhibit the signaling activity reported inside the cells. To test this, a PXR-luciferase reporter system expressed in HepG2 cells was used and a luciferase assay was performed by adding 10 μM BEI-9 to the cells five minutes before measuring luciferase catalyzed reactions. In parallel, ATP-dependent cell viability was also measured using a CellTiter-Glo® kit to examine if BEI-9 would compete with cellular ATP, which is required for the luciferase activity.
# SW480 colon cancer cells [5] = test: CellTiter-Glo cell viability; assay type: cell-based; details: Homo sapiens; SW480, 12.5 μM; read-out: reduction in cell viability
# Protocol: as §3
# SW480 colon cancer cells [6] = test: Recovery after wash-out of compound; assay type: cell-based; details: SW480, 25 μM for 48 hours, then four days in fresh medium
# Protocol: To examine if treated cells would recover after the compound was washed out, SW480 colon cancer cells were treated with 25 μM 3-(2-bromoethyl) indole for 48 hours, then the monolayer was rinsed 3 times with culture medium to remove the compound. The cell monolayers were left in the fresh growth medium for four days of further incubation. Results shown in FIG. 10 reveal that the vehicle-treated SW480 cells rapidly grew to full confluency in just 48 hours.
# SW480 colon cancer cells [7] = test: MTT assay of cell viability and proliferation; assay type: cell-based
# Protocol: SW480 colon cancer cells were treated with solvent DMSO (CONT), staurosporine (STS)—an agent that is known to kill cancer cells—and four select indole derivative compounds. Cell viability and proliferation was examined under a MTT assay protocol. […] The control solvent is shown as in FIG. 1A as the bar corresponding to “CONT.” When treated with only the control solvent, the cancer cells are 100% viable. Yet, according to FIG. 1A, treating cancer cells with 3-(2-bromoethyl) indole reduces cancer cell viability and proliferation by about 60% within 48 hours. As noted in FIG. 1A, 3-(2-bromoethyl) indole is represented by “INDOLE 9.” By comparison, a similar concentration of indole-3-carbinol reduces cell proliferation only by about 30%. As noted in FIG. 1A, indole-3-carbinol is represented by “INDOLE 14.”
# luciferase [8] = molecular target: T1, luciferase (Photinus pyralis, UniProt P08659); assay type: cell-based; details: HepG2 PXR-luciferase, 10 μM added five minutes before measuring
# T1 construct: expressed in transfected cells; host or cells: HepG2
# T1 sequence (P08659 whole entry, species assumed): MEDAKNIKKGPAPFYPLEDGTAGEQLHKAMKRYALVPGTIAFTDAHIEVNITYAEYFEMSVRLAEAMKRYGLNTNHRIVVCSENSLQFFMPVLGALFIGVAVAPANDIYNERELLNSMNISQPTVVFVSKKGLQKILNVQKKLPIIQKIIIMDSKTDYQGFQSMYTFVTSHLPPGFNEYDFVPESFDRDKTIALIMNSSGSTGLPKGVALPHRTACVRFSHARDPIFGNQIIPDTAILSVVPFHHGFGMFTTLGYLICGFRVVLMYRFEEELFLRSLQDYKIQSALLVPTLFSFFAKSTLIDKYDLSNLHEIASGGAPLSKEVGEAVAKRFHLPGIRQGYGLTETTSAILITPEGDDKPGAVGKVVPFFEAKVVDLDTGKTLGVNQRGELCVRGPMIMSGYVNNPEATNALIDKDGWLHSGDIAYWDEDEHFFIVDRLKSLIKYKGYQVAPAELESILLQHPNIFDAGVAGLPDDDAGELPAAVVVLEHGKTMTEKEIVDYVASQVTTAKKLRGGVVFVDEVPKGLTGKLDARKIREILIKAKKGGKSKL
# Protocol: as §6
# SW480 cells [9] = test: Microphotographs of cells for signs of apoptosis (membrane blebs); assay type: cell-based; details: for sign of cell apoptosis, single agent: SW480, 25 ng/ml TNFα alone or 5 μM 3-(2-bromoethyl) indole alone
# Protocol: Microphotographs were taken of SW480 cells treated with vehicle control (DMSO) (top left), 25 ng/ml TNFα (top right), 5 μM 3-(2-bromoethyl) indole (bottom left), and a combination of 25 ng/ml TNFα and 5 μM 3-(2-bromoethyl) indole (bottom right).
# as §4
# cyclin D1 = test: Immunoblotting of cyclin D1 protein level; assay type: cell-based; details: SW480, immunoblotting
# Protocol: as §1
# SW480 colon cancer cells [10] = test: Microscopic evaluation of cell proliferation; assay type: cell-based; details: SW480, 25 μM, 24 and 48 hours
# Protocol: as §2
# Increasing concentrations of 3-(2-bromoethyl) indole (from 12.5 μM to 100 μM) were tested on SW480 colon cancer cells, and viability of the treated cells was measured by the CellTiter-Glo® (Promega® Corporation) method. […] Similarly, dose response examination and cell cycle analysis using variable concentrations of 3-(2-bromoethyl) indole ranging from 12.5 to 100 μM confirms that even doses lower than 50 μM inhibit cell proliferation. […]
# HCT116 cells [11] = test: Microphotograph dose response of proliferation; assay type: cell-based; details: 5 μM and 10 μM
# Protocol: as §5
# NF-kB [12] = details: SW480 reporter cells; cited from earlier work
compound,measurement,setting,value
BrCCc1c[nH]c2ccccc12 [3-(2-bromoethyl) indole],expression of cyclin A protein,cyclin A,drastically decreased
same,"motility, ability to migrate and fill the wound gap",SW480 cells [1],markedly inhibited the motility
same,"cell cycle profile, proliferation","SW480 cancer cells; SW480, 50 μM, 24 and 48 hours",effectively prevents proliferation
same,induction of sub-G1 population indicative of apoptosis,"SW480 cancer cells; SW480, 24 and 48 hours after treatment",no apparent induction of sub-G1 population
same,"apoptosis as accumulation of sub-G1 population, sequential treatment","SW480 cancer cells; SW480, CPT for 24 hours followed by BEI-9 for 24 hours",appearance of a distinct sub-G1 population
same,doses that inhibit cell proliferation,"SW480 cancer cells; SW480, dose response examination and cell cycle analysis, 12.5 to 100 μM",lower than 50 μM
same,"apoptosis as accumulation of sub-G1 population, co-treatment of CPT and BEI-9","SW480 cancer cells; SW480, flow cytometry",did not induce apoptosis
same,"apoptosis as accumulation of sub-G1 population, single agent","SW480 cancer cells; SW480, flow cytometry",did not induce apoptosis
same,cell death in cell cycle analysis,"SW480 cancer cells; SW480, highest concentration tested 100 μM",Cell death is noticed
same,difference between the effects of 0.5 μM and 5 μM on TNFα-activated NF-kB reporter,"NF-kB [2]; SW480-NFL, 25 ng/ml TNFα",over 10 fold
same,activation of NF-kB reporter activity by TNFα,"NF-kB [2]; SW480-NFL, 25 ng/ml TNFα, 5 μM or 10 μM compound",completely abolished
same,basal luciferase reporter activity,"NF-kB [2]; SW480-NFL, 24 hours after treatment",reduced the reporter activity
same,effect on CPT-induced NF-kB reporter activity,"NF-kB [2]; SW480 reporter cells, 0.5 μM CPT, 0.2 μM BEI-9",did not have any noticeable effect
same,inhibition of CPT-induced NF-kB response,"NF-kB [2]; SW480 reporter cells, 0.5 μM CPT, BEI-9 concentrations greater than 0.8 μM, versus CPT-only",more than 50%
same,viability index (absorbance 490 nm),HCT116 cells [3],decreased the viability index
same,inhibition of luciferase by competing with cellular ATP,luciferase [4],does not inhibit luciferase
same,cytotoxicity at 12.5 µM,SW480 colon cancer cells [5],~50%
same,recovery of cells after wash-out,SW480 colon cancer cells [6],not able to recover at all
same,reduction of cancer cell viability and proliferation,"SW480 colon cancer cells [7]; SW480, within 48 hours, relative to control solvent DMSO",about 60%
same,direct inhibition of luciferase,luciferase [8],does not inhibit luciferase
same,"sign of cell apoptosis, single agent",SW480 cells [9],fails to indicate any sign of cell apoptosis
same,"sign of cell apoptosis, combination with TNFα","SW480 cells [9]; SW480, 5 μM compound combined with 25 ng/ml TNFα",appearance of cells with membrane blebs
same,expression of cyclin D1 protein,cyclin D1,drastically decreased
same,cell proliferation by microscopic evaluation,SW480 colon cancer cells [10],failed to multiply
same,proliferation of HCT116 cells,HCT116 cells [11],completely stopped the proliferation
"COc1ccc2[nH]ccc2c1 [5-methoxyindole, reference compound]",expression of cyclin A protein,cyclin A,did not exhibit the same beneficial effects
same,expression of cyclin D1 protein,cyclin D1,did not exhibit the same beneficial effects
CC[C@@]1(O)C(=O)OCc2c1cc1n(c2=O)Cc2cc3ccccc3nc2-1 [camptothecin],"apoptosis as accumulation of sub-G1 population, single agent","SW480 cancer cells; SW480, flow cytometry",did not induce apoptosis
same,peak activating concentrations for NF-kB activation,NF-kB [12],0.5 µM and 1.0 µM
"OCc1c[nH]c2ccccc12 [indole-3-carbinol, reference compound]",reduction of cancer cell viability and proliferation,SW480 colon cancer cells [7],about 30%
TNFα,"sign of cell apoptosis, single agent",SW480 cells [9],fails to indicate any sign of cell apoptosis
